Source: patent publication US9656955B2, “Pyrrolidine derivatives, pharmaceutical compositions containing them, and their use in therapy” (AbbVie Deutschland GmbH & Co. KG, priority 2013, dated 2017)
pKi: −log10 of the molar value.

Biological target: human GlyT1c transporter (Homo sapiens (Human), UniProt P48067)
Assay: Radioligand binding assays using recombinant CHO cell membranes expressing human GlyT1
Settings: not given

Chain of human GlyT1c transporter (P48067 whole entry): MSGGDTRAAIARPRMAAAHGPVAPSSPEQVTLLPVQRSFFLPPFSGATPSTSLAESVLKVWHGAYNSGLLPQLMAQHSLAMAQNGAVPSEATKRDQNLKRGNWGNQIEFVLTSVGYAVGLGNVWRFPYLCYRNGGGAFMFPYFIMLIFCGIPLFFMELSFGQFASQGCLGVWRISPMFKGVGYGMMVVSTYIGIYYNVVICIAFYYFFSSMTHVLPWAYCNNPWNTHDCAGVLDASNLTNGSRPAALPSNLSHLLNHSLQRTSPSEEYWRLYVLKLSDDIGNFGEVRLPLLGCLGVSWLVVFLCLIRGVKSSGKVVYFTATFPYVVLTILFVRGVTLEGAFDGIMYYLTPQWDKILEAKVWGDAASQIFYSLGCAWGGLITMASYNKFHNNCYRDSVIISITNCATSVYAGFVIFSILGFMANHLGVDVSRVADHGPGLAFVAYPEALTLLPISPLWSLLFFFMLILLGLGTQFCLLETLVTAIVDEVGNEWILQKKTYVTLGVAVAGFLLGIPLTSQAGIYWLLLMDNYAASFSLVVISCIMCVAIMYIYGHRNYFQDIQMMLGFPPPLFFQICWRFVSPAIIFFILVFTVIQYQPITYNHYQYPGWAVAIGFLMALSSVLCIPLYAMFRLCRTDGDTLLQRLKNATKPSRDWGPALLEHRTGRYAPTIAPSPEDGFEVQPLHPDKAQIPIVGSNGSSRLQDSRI

SMILES | pKi
Cn1cnc(S(=O)(=O)N2C[C@@H](C(=O)c3cc(Cl)cc(Cl)c3)[C@H](c3ccc(F)cc3)C2)c1 (relative stereo) [Example 360, (3,5-Dichlorophenyl) {trans-4-(4-fluorophenyl)-1-[(1-methyl-1H-imidazol-4-yl)sulfonyl]pyrrolidin-3-yl}methanone] | ≥ 7.00
Cn1cnc(S(=O)(=O)N2C[C@@H](Nc3cccc(F)n3)[C@H](c3ccc(F)cc3)C2)c1 (relative stereo) [Example 238, 6-fluoro-N-{trans-4-(4-fluorophenyl)-1-[(1-methyl-1H-imidazol-4-yl)sulfonyl]pyrrolidin-3-yl}pyridin-2-amine] | ≥ 5.00

Same assay, conditions: radioligand binding, human GlyT1c transporter-expressing CHO cell membranes

SMILES | pKi
Cc1ccc(-c2cc(N[C@H]3CN(S(=O)(=O)c4cn(C)cn4)C[C@@H]3c3ccc(F)cc3)ncn2)cc1 [Example 725, N-{(3R,4S)-4-(4-fluorophenyl)-1-[(1-methyl-1H-imidazol-4-yl)sulfonyl]pyrrolidin-3-yl}-6-(4-methylphenyl)pyrimidin-4-amine] | ≥ 8.00
Cc1cccc2ncc(CN[C@H]3CN(S(=O)(=O)c4cn(C)cn4)C[C@@H]3c3ccccc3)n12 [Example 563, (3R,4S)-1-[(1-methyl-1H-imidazol-4-yl)sulfonyl]-N-[(5-methylimidazo[1,2-a]pyridin-3-yl)methyl]-4-phenylpyrrolidin-3-amine] | ≥ 5.00
Cn1cc(S(=O)(=O)N2CC(Nc3ccc(F)c(F)c3)C(c3ccccc3)C2)c(C(F)(F)F)n1 (centres unmarked) [Example 476, N-(3,4-difluorophenyl)-1-{[1-methyl-3-(trifluoromethyl)-1H-pyrazol-4-yl]sulfonyl}-4-phenylpyrrolidin-3-amine] | ≥ 5.00
Cn1cnc(S(=O)(=O)N2C[C@H](Nc3ccc(Cl)c(C(F)(F)F)c3)[C@@H](c3ccc(F)cc3)C2)c1 [Example 540, (3R,4S)—N-[4-chloro-3-(trifluoromethyl)phenyl]-4-(4-fluorophenyl)-1-[(1-methyl-1H-imidazol-4-yl)sulfonyl]pyrrolidin-3-amine] | ≥ 7.00
Cn1cnc(S(=O)(=O)N2C[C@@H]([C@@H]3CCCOC3)[C@H](Nc3cccc(OCC(F)(F)F)c3)C2)c1 (mixture of isomers) [Example 785, trans-1-[(1-methyl-1H-imidazol-4-yl)sulfonyl]-4-[(3S)-tetrahydro-2H-pyran-3-yl]-N-[3-(2,2,2-trifluoroethoxy)phenyl]pyrrolidin-3-amine] | ≥ 7.00
Cn1cnc(S(=O)(=O)N2C[C@H](Nc3cccc(C(F)(F)F)c3)[C@@H](C3CCCO3)C2)c1 (stereo partly drawn) [Example 604, (3R,4S)-1-[(1-methyl-1H-imidazol-4-yl)sulfonyl]-4-(tetrahydrofuran-2-yl)-N-[3-(trifluoromethyl)phenyl]pyrrolidin-3-amine] | ≥ 7.00
Cn1cnc(S(=O)(=O)N2C[C@H](Nc3cc(OC4CCC4)ncn3)[C@@H](c3ccc(F)cc3)C2)c1 [Example 719, 6-(cyclobutyloxy)-N-{(3R,4S)-4-(4-fluorophenyl)-1-[(1-methyl-1H-imidazol-4-yl)sulfonyl]pyrrolidin-3-yl}pyrimidin-4-amine] | ≥ 7.00
Cc1ccc(CN[C@H]2CN(S(=O)(=O)c3cn(C)cn3)C[C@@H]2c2ccccc2)s1 [Example 462, (3R,4S)-1-[(1-methyl-1H-imidazol-4-yl)sulfonyl]-N-[(5-methylthiophen-2-yl)methyl]-4-phenylpyrrolidin-3-amine] | ≥ 7.00
Cn1cnc(S(=O)(=O)N2CC(NCc3ccc(C(F)(F)F)cc3Cl)C([C@@H]3CCCO3)C2)c1 (stereo partly drawn) [Example 823, N-[2-chloro-4-(trifluoromethyl)benzyl]-1-[(1-methyl-1H-imidazol-4-yl)sulfonyl]-4-[(2S)tetrahydrofuran-2-yl]pyrrolidin-3-amine] | ≥ 6.00
Cn1cnc(S(=O)(=O)N2C[C@H](NCCCC3CC3)[C@@H](c3ccccc3)C2)c1 [Example 573, (3R,4S)—N-(3-cyclopropylpropyl)-1-[(1-methyl-1H-imidazol-4-yl)sulfonyl]-4-phenylpyrrolidin-3-amine] | ≥ 7.00
O=S(=O)(C1CCC1)N1CC(Nc2ccc(F)c(F)c2)C(c2ccccc2)C1 (centres unmarked) [Example 509, 1-(cyclobutylsulfonyl)-N-(3,4-difluorophenyl)-4-phenylpyrrolidin-3-amine] | ≥ 5.00
Cn1cnc(S(=O)(=O)N2C[C@H](NCc3nc(-c4ccc(F)cc4)cs3)[C@@H](c3ccccc3)C2)c1 [Example 460, (3R,4S)—N-{[4-(4-fluorophenyl)-1,3-thiazol-2-yl]methyl}-1-[(1-methyl-1H-imidazol-4-yl)sulfonyl]-4-phenylpyrrolidin-3-amine] | ≥ 5.00
Cn1cnc(S(=O)(=O)N2C[C@H](Nc3cnc(C4CCC4)cn3)[C@@H](c3ccccc3)C2)c1 [Example 411, 5-cyclobutyl-N-{(3R,4S)-1-[(1-methyl-1H-imidazol-4-yl)sulfonyl]-4-phenylpyrrolidin-3-yl}pyrazin-2-amine] | ≥ 5.00
Cn1cc(S(=O)(=O)N2C[C@H](Nc3cccc(Cl)c3)[C@@H](c3ccc(F)cc3)C2)nn1 [Example 841, (3R,4S)—N-(3-chlorophenyl)-4-(4-fluorophenyl)-1-[(1-methyl-1H-1,2,3-triazol-4-yl)sulfonyl]pyrrolidin-3-amine] | ≥ 8.00
Cc1cc(N[C@H]2CN(S(=O)(=O)c3cn(C)cn3)C[C@@H]2c2ccccc2)ncc1F [Example 574, 5-fluoro-4-methyl-N-{(3R,4S)-1-[(1-methyl-1H-imidazol-4-yl)sulfonyl]-4-phenylpyrrolidin-3-yl}pyridin-2-amine] | ≥ 7.00
Cn1cnc(S(=O)(=O)N2CC(Nc3cccc(C(F)(F)F)c3)C(C3CCCO3)C2)c1 (centres unmarked) [Example 603, 1-[(1-methyl-1H-imidazol-4-yl)sulfonyl]-4-(tetrahydrofuran-2-yl)-N-[3-(trifluoromethyl)phenyl]pyrrolidin-3-amine] | ≥ 7.00
Cn1ccc(S(=O)(=O)N2CC(Nc3ccc(F)c(F)c3)C(c3ccccc3)C2)n1 (centres unmarked) [Example 502, N-(3,4-difluorophenyl)-1-[(1-methyl-1H-pyrazol-3-yl)sulfonyl]-4-phenylpyrrolidin-3-amine] | ≥ 5.00
Cn1cnc(S(=O)(=O)N2C[C@H](NC(=O)CCC(C)(F)F)[C@@H](c3ccc(F)cc3)C2)c1 [Example 754, 4,4-difluoro-N-{(3R,4S)-4-(4-fluorophenyl)-1-[(1-methyl-1H-imidazol-4-yl)sulfonyl]pyrrolidin-3-yl}pentanamide] | ≥ 5.00
Cn1cnc(S(=O)(=O)N2CC(c3ccccc3)N(Cc3cccc(Cl)c3)C2=O)c1 (centres unmarked) [Example 343, 3-(3-chlorobenzyl)-1-[(1-methyl-1H-imidazol-4-yl)sulfonyl]-4-phenylimidazolidin-2-one] | ≥ 5.00
CCCCOc1cc(N[C@H]2CN(S(=O)(=O)c3cn(C)cn3)C[C@@H]2c2ccccc2)ncn1 [Example 623, 6-butoxy-N-{(3R,4S)-1-[(1-methyl-1H-imidazol-4-yl)sulfonyl]-4-phenylpyrrolidin-3-yl}pyrimidin-4-amine] | ≥ 7.00
Cc1nn(C2CCCC2)cc1S(=O)(=O)N1CC(Nc2ccc(F)c(F)c2)C(c2ccccc2)C1 (centres unmarked) [Example 479, 1-[(1-cyclopentyl-3-methyl-1H-pyrazol-4-yl)sulfonyl]-N-(3,4-difluorophenyl)-4-phenylpyrrolidin-3-amine] | < 5.00
